26 molecules from PubChem BioAssay AID192 (DTP/NCI, 2004) can be followed below.

“And” between values parts separate entries of the source, which are not always exact repeats. Identical values can stand only once. Inconclusive results and toxic doses are left out.

The subject of the assay is BDF1 mice, B16 melanoma ip, median survival T/C. The experiment in a line: NCI In Vivo Anticancer Drug Screen. Data for tumor model B16 Melanoma (intraperitoneal) in B6D2F1 (BDF1) mice. The following applies: endpoint: median survival time, higher = longer survival. The gist of the method:
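Antitumor activity is assessed in mice bearing a transplanted tumor, with survival or tumor size compared against vehicle-dosed controls and expressed as T/C.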

The mark [1] stands for this setting: dose: 50.0 mg/kg/injection, schedule: Q01DX009 (ip), vehicle: Klucel (hydroxypropylcellulose) (HPC).
Setting [2] is: dose: 100.0 mg/kg/injection, schedule: Q01DX009 (ip), vehicle: Klucel (hydroxypropylcellulose) (HPC).
The mark [3] stands for this setting: dose: 200.0 mg/kg/injection, schedule: Q01DX009 (ip), vehicle: Klucel (hydroxypropylcellulose) (HPC).
Setting [4] is: dose: 12.5 mg/kg/injection, schedule: Q01DX009 (ip), vehicle: saline.
The mark [5] stands for this setting: dose: 25.0 mg/kg/injection, schedule: Q01DX009 (ip), vehicle: saline.
Setting [6] is: dose: 50.0 mg/kg/injection, schedule: Q01DX009 (ip), vehicle: saline.
[7] abbreviates: dose: 100.0 mg/kg/injection, schedule: Q01DX009 (ip), vehicle: saline with Tween-80.
[8] abbreviates: dose: 200.0 mg/kg/injection, schedule: Q01DX009 (ip), vehicle: saline with Tween-80.
[9] abbreviates: dose: 400.0 mg/kg/injection, schedule: Q01DX009 (ip), vehicle: saline with Tween-80.
The mark [10] stands for this setting: dose: 12.5 mg/kg/injection, schedule: Q01DX009 (ip), vehicle: Klucel (hydroxypropylcellulose) (HPC).
Where [11] appears, read: dose: 25.0 mg/kg/injection, schedule: Q01DX009 (ip), vehicle: Klucel (hydroxypropylcellulose) (HPC).
[12] abbreviates: dose: 6.25 mg/kg/injection, schedule: Q01DX009 (ip), vehicle: saline.
Setting [13] is: dose: 400.0 mg/kg/injection, schedule: Q01DX009 (ip), vehicle: Klucel (hydroxypropylcellulose) (HPC).
Setting [14] is: dose: 50.0 mg/kg/injection, schedule: Q01DX009 (ip), vehicle: saline with Tween-80.
The mark [15] stands for this setting: dose: 6.25 mg/kg/injection, schedule: Q01DX009 (ip), vehicle: Klucel (hydroxypropylcellulose) (HPC).

With `C[CH2][Pb]([CH2]C)([CH2]C)[O]C(=O)c1ccccc1`, the T/C reads like this: (dose: 0.75 mg/kg/injection, schedule: Q01DX009 (ip), vehicle: Klucel (hydroxypropylcellulose) (HPC)) 93 % of control; (dose: 1.5 mg/kg/injection, schedule: Q01DX009 (ip), vehicle: Klucel (hydroxypropylcellulose) (HPC)) 90 % of control.

Consider `O=c1oc(-c2ccc3c(c2)OCO3)nc2ccccc12`, for which the T/C under setting [1] is 98 % of control, the T/C under setting [2] was 99 % of control and the T/C under setting [3] was 91 % of control.

As to `O=C(O)CCCC1CCCCC1.[Cu+2]`, the T/C was 100 % of control (dose: 6.25 mg/kg/injection, schedule: Q01DX009 (ip), vehicle: saline with Tween-80) and 97 % of control (dose: 12.5 mg/kg/injection, schedule: Q01DX009 (ip), vehicle: saline with Tween-80).

For `C=C(C)/C([O-])=N/[N+](C)(C)CC(O)CCCCCCCCCCCC` (stereo not drawn), the T/C was 91 % of control (dose: 25.0 mg/kg/injection, schedule: Q01DX001 (ip), vehicle: saline) and 95 % of control (dose: 50.0 mg/kg/injection, schedule: Q01DX001 (ip), vehicle: saline).

`CC(C)NNC(=O)c1ccncc1`: the T/C by setting is: under setting [4], 107 % of control; under setting [5], 94 % of control and 101 % of control; under setting [6], 95 % of control and 101 % of control; (dose: 100.0 mg/kg/injection, schedule: Q01DX009 (ip), vehicle: saline) 110 % of control; (dose: 200.0 mg/kg/injection, schedule: Q01DX009 (ip), vehicle: saline) 92 % of control and 104 % of control.

As to `O=C(Nc1ccccc1Cl)Oc1ccccc1Cc1ccccc1`, the T/C reads like this: (dose: 100.0 mg/kg/injection, schedule: Q04DX003 (ip), vehicle: Klucel (hydroxypropylcellulose) (HPC)) 100 % of control; (dose: 200.0 mg/kg/injection, schedule: Q04DX003 (ip), vehicle: Klucel (hydroxypropylcellulose) (HPC)) 106 % of control; (dose: 400.0 mg/kg/injection, schedule: Q04DX003 (ip), vehicle: Klucel (hydroxypropylcellulose) (HPC)) 93 % of control.

On to `Cc1ccccc1NC(=O)c1cc2ccccc2cc1O`, for which the T/C was 110 % of control under setting [7], 110 % of control under setting [8] and 107 % of control under setting [9].

On to `CC(C)OCCCN=C(N)N`, for which the T/C runs as follows: under setting [4], 105 % of control; under setting [5], 106 % of control; under setting [6], 110 % of control.

As for `C=C1C(=O)OC2CC1C(OC(=O)/C=C/c1ccccc1)C/C(C)=C/CC/C(C)=C/CCC2(C)O` (stereo not drawn), the T/C by setting is: under setting [10], 105 % of control; under setting [11], 92 % of control; under setting [1], 101 % of control.

As for `Nc1nc(-c2ccccc2)c(Br)c(=O)[nH]1`, the T/C under setting [9] was 150 % of control.

With `OCC(O)COCC#Cc1ccccc1` (stereo not drawn), the T/C is, setting by setting: under setting [12], 118 % of control; under setting [4], 114 % of control; under setting [5], 110 % of control; under setting [1], 87 % of control; under setting [6], 101 % of control.

In the case of `FC1(F)SC2C3CC(C4CCC=C43)C2C1(F)F` (stereo not drawn), the T/C (dose: 0.39 mg/kg/injection, schedule: Q01DX009 (ip), vehicle: Klucel (hydroxypropylcellulose) (HPC)) was 89 % of control and the T/C (dose: 0.78 mg/kg/injection, schedule: Q01DX009 (ip), vehicle: Klucel (hydroxypropylcellulose) (HPC)) is 103 % of control.

For the molecule `[N-]=[N+]=C1N=CN=C1c1ncn[nH]1`, the T/C was 107 % of control (dose: 3.12 mg/kg/injection, schedule: Q01DX009 (ip), vehicle: carboxymethylcellulose (CMC)) and 119 % of control (dose: 6.25 mg/kg/injection, schedule: Q01DX009 (ip), vehicle: carboxymethylcellulose (CMC)).

As to `CC(=O)OCC(OC(C)=O)C(OC(C)=O)C(OC(C)=O)C(C#N)OC(C)=O` (stereo not drawn), the T/C runs as follows: (dose: 100.0 mg/kg/injection, schedule: Q01DX005 (ip), vehicle: saline with Tween-80) 104 % of control; (dose: 100.0 mg/kg/injection, schedule: Q04DX003 (ip), vehicle: saline with Tween-80) 86 % of control; (dose: 200.0 mg/kg/injection, schedule: Q01DX005 (ip), vehicle: saline with Tween-80) 100 % of control; (dose: 200.0 mg/kg/injection, schedule: Q04DX003 (ip), vehicle: saline with Tween-80) 97 % of control; (dose: 400.0 mg/kg/injection, schedule: Q01DX005 (ip), vehicle: saline with Tween-80) 97 % of control.

As for `COc1cccc(N=Cc2ccc(C=Nc3cccc(OC)c3)cc2)c1`, the T/C under setting [2] was 107 % of control, the T/C under setting [3] is 96 % of control and the T/C under setting [13] was 96 % of control.

For `CCN(CC)CCCC(C)Nc1cc(/C=C/c2ccc(Cl)cc2)nc2cc(N(C)C)ccc12` (stereo not drawn), under setting [10], the T/C is 97 % of control.

Consider `S=C(S)Nc1cccc2ccccc12`, for which the T/C by setting is: under setting [10], 96 % of control; under setting [11], 93 % of control; under setting [1], 103 % of control.

Take `O=C(CCl)NC(Cc1ccc(O)cc1)C(=O)O` (stereo not drawn): the T/C reads like this: (dose: 25.0 mg/kg/injection, schedule: Q01DX009 (ip), vehicle: saline with Tween-80) 105 % of control; under setting [14], 101 % of control; under setting [7], 95 % of control.

Consider `CNC(=O)OCc1c(COC(=O)NC)c(C)n(-c2ccc(OC)cc2)c1C`, for which the T/C runs as follows: (dose: 3.12 mg/kg/injection, schedule: Q01DX009 (ip), vehicle: Klucel (hydroxypropylcellulose) (HPC)) 113 % of control; under setting [15], 111 % of control.

Regarding `BrCCC[P+](c1ccccc1)(c1ccccc1)c1ccccc1`, the T/C is, setting by setting: (dose: 3.13 mg/kg/injection, schedule: Q01DX009 (ip), vehicle: Klucel (hydroxypropylcellulose) (HPC)) 106 % of control; (dose: 3.13 mg/kg/injection, schedule: Q01DX009 (ip), vehicle: saline) 105 % of control; (dose: 3.13 mg/kg/injection, schedule: Q04DX003 (ip), vehicle: saline) 89 % of control; under setting [15], 103 % of control; under setting [12], 100 % of control; (dose: 6.25 mg/kg/injection, schedule: Q04DX003 (ip), vehicle: saline) 89 % of control. Moreover, the T/C under setting [10] was 106 % of control; the T/C under setting [4] was 107 % of control; the T/C (dose: 12.5 mg/kg/injection, schedule: Q04DX003 (ip), vehicle: saline) is 89 % of control; the T/C under setting [11] was 90 % of control; the T/C (dose: 25.0 mg/kg/injection, schedule: Q04DX003 (ip), vehicle: Klucel (hydroxypropylcellulose) (HPC)) was 90 % of control.

As for `NC(=O)c1ccccc1NC(=O)c1ccccc1Cl`, the T/C was 100 % of control under setting [2], 97 % of control under setting [3] and 102 % of control under setting [13].

As to `O=c1ncccn1[C@@H]1O[C@H](CO)[C@H](O)C1O` (stereo partly drawn), the T/C was 119 % of control under setting [5]; 115 % of control under setting [6]; 166 % of control (dose: 400.0 mg/kg/injection, schedule: Q01DX009 (ip), vehicle: saline).

With `CC[C@@H](O)C[C@H]1CCC[C@@]2(C[C@@H]3OC(=O)/C=C/[C@@](C)(O)[C@@H](O)[C@H](C)[C@@H](O)[C@H](OC4CCC(N(C)C)C(C)O4)[C@@H](O)[C@](C)(O)CCCCC/C=C/[C@@H]4CC(C)(C)O[C@@]4(O)C[C@H](O2)[C@H]3C)O1` (stereo partly drawn), the T/C is 101 % of control (dose: 4.0 micrograms/kg/injection, schedule: Q01DX009 (ip), vehicle: saline); 97 % of control (dose: 8.0 micrograms/kg/injection, schedule: Q01DX009 (ip), vehicle: saline); 109 % of control (dose: 16.0 micrograms/kg/injection, schedule: Q01DX009 (ip), vehicle: saline); 93 % of control (dose: 32.0 micrograms/kg/injection, schedule: Q01DX009 (ip), vehicle: saline).

For the molecule `NC1=NC(=O)NC1(c1ccccc1)c1ccccc1`, the T/C is, setting by setting: under setting [14], 98 % of control; under setting [7], 109 % of control; under setting [8], 97 % of control; under setting [9], 93 % of control.

Consider `C[P+](C)(Cc1ccc([N+](=O)[O-])cc1)c1ccccc1`, for which the T/C runs as follows: under setting [11], 98 % of control; under setting [1], 100 % of control.

On to `CCN1C(=O)NC(=O)/C(=C/N(CCO)CCO)C1=O`, for which the T/C is 111 % of control under setting [2], 107 % of control under setting [3] and 96 % of control under setting [13].
